pIC50: −log10 of the molar value.
Target: Interleukin-17 receptor A/ (Homo sapiens, UniProt Q16552)
Test: Human IL-17A x IL-17RA TR-FRET assay
Method: The final total assay volume is 10 µL. […] The neutral control (NC) contains all the assay components, but DMSO instead of test compound. […] The fluorescence values for emission at 615 nm and 665 nm are loaded to the evaluation software Helios.

Chain of Interleukin-17 receptor A/ (Q16552 whole entry): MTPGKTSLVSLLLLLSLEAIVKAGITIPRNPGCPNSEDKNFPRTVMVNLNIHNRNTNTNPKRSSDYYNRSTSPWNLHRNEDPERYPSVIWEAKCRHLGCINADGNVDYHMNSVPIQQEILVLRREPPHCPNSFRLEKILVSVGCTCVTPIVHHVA
Chain of Interleukin-17 receptor A/ (Q96F46 whole entry, further chain): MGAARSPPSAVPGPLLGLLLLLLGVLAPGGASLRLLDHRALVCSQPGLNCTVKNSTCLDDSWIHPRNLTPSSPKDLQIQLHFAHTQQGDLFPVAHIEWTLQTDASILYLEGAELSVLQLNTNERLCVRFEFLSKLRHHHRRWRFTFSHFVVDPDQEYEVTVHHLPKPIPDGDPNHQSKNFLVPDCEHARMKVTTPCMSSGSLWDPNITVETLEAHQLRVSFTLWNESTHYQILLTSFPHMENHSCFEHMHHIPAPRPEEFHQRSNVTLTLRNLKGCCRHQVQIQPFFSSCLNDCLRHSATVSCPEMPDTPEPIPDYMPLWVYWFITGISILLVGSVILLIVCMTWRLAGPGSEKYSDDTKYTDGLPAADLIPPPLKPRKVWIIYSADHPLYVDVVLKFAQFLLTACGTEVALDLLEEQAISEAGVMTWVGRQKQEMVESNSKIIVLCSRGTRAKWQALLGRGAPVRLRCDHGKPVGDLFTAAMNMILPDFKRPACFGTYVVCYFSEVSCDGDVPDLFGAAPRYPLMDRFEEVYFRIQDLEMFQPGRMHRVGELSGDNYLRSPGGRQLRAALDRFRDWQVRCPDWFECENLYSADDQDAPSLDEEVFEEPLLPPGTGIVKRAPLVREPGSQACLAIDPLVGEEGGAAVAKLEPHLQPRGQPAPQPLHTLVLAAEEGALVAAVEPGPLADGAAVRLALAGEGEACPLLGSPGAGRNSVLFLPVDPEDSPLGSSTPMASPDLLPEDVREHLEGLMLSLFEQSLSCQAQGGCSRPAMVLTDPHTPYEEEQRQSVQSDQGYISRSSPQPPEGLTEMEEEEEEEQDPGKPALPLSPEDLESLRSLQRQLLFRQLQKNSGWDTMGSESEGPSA

Compound | pIC50
Cc1cc[n+]([O-])c(C)c1-c1ccc(NC(=O)[C@@H](NC(=O)c2conc2CN)C2CCCCC2)cc1 [WO2022091056, Example 79] | 6.04
Cc1c(-c2ccc(NC(=O)[C@@H](NC(=O)c3ccnn3C)C3CCCCC3)cc2F)ccc[n+]1[O-] [WO2022091056, Example 83] | 5.70
Cc1c[n+]([O-])cc(C)c1-c1ccc(NC(=O)[C@@H](NC(=O)c2ccnn2C)C2CCCCC2)cc1 [WO2022091056, Example 97] | 5.76
Cc1c(-c2ccc(NC(=O)[C@@H](NC(=O)c3ccnn3C)[C@H]3CCCC(F)(F)C3)cc2F)c(Cl)cc[n+]1[O-] [WO2022091056, Example 110] | 7.64
Cc1nccc(Cl)c1-c1ccc(NC(=O)[C@@H](NC(=O)c2ccnn2C)C2CCCCC2)cc1F [WO2022091056, Example 137] | 5.42
